Measurements as given in paper PMC3644560 (Journal of the American Chemical Society, 2013).

Assays:
Aquifex aeolicus IspH = settings: Aquifex aeolicus enzyme, DT-reduced MV ref 26; cited from earlier work
E. coli IspH [1] = target: T1, E. coli IspH (Escherichia coli, UniProt P62623); experiment: Spectrophotometric IspH assay; assay type: biochemical; settings: for substrate for IspH (NADPH consumption at 340 nm): 200 μM compound, IspH 0.5 μM, anaerobic, pH 8
E. coli IspH [2] = target: T1, E. coli IspH; assay type: biochemical
E. coli IspH [3] = target: T1, E. coli IspH; experiment: IspH inhibition assay using [3-14C]HMBPP and the NADPH/FpR1/FldA reducing system; assay type: biochemical; settings: steady-state studies with [3-14C]HMBPP and NADPH/FpR1/FldA
[4] = fit of kapp vs [AMBPP] to Eqn 2, mechanism A, pH 8, 37 °C

T1 sequence (P62623 whole entry): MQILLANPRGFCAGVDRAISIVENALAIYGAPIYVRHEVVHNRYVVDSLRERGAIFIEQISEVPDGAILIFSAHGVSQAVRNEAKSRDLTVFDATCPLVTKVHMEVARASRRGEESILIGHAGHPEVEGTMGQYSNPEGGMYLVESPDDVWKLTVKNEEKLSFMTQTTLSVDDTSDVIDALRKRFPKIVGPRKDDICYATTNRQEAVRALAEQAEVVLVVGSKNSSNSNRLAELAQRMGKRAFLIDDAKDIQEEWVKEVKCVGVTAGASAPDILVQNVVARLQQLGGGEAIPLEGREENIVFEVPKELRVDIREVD

SMILES	IC50 (Aquifex aeolicus IspH)	Ki (E. coli IspH [1])	substrate for IspH (NADPH consumption at 340 nm) (E. coli IspH [1])	effect of pH on inhibition constant and rate of binding to IspH (E. coli IspH [1]; Figures S5 and S6)	k3 (rate constant of formation of the EI complex) (E. coli IspH [1]; [4])	k4 (rate constant of dissociation of the EI complex) (E. coli IspH [1]; [4])	IC50 (E. coli IspH [2])	mode of inhibition (E. coli IspH [3])
C#CCCOP(=O)(O)OP(=O)(O)O [3-butynyl diphosphate]	450 nM	–	–	–	–	–	–	–
C/C(=C\COP(=O)(O)OP(=O)(O)O)CN.N.N [AMBPP, (E)-4-Amino-3-methylbut-2-enyl 1-diphosphate bis ammonium salt]	–	54 ± 19 nM	not substrates for IspH	decrease as pH increases	41000 M⁻¹ s⁻¹	0.0022 s⁻¹	150 ± 20 nM	competitive inhibition was confirmed
C/C(=C\COP(=O)(O)OP(=O)(O)O)CS.N.N [TMBPP, (E)-4-Mercapto-3-methyl-but-2-en-1-yl diphosphate bis ammonium salt]	–	–	not substrates for IspH	–	–	–	210 ± 10 nM	competitive inhibitor
